Reference: ChEMBL document CHEMBL1123701, “Synthesis and quantitative structure-activity relationship analysis of N-triiodoallyl- and N-iodopropargylazoles. New antifungal agents” (1987)
Values after ≈ are worked out from the molar mass of the structure shown.

Columns and labels:
Cryptococcus neoformans = experiment: Antifungal activity against Cryptococcus neoformans Cr-1 strain; format: functional
Aspergillus fumigatus = experiment: Antifungal activity against Aspergillus fumigatus Saito strain; format: functional
[1] = test system: Trichophyton interdigitale; experiment: Antifungal activity towards Trichophyton interdigitale; format: functional
Candida albicans = experiment: Antifungal activity against Candida albicans C-A-24 strain; format: functional
Trichophyton benhamiae = experiment: Antifungal activity towards Trichophyton mentagrophytes 530324 strain; format: functional, Arthroderma benhamiae

Row | SMILES | MIC (Cryptococcus neoformans) [µg/mL] | MIC (Aspergillus fumigatus) [µg/mL] | MIC [1] [µg/mL] | MIC (Candida albicans) [µg/mL] | MIC (Trichophyton benhamiae) [µg/mL]
1 | CCOCCc1nnn(CC(I)=C(I)I)n1 | 1.56 (≈ 2.79 µM) | 0.78 (≈ 1.39 µM) | 0.39 (≈ 0.697 µM) | 3.13 (≈ 5.59 µM) | 0.2 (≈ 0.357 µM)
2 | IC#CCn1nnc(-c2ccc(C3N=NN=N3)cc2)n1 | > 100 | > 100 | 1.56 (≈ 4.13 µM) | > 100 | 1.56 (≈ 4.13 µM)
3 | O=[N+]([O-])c1c(Cl)cccc1-c1cn(CC#CI)cc1Cl | 25 (≈ 59.4 µM) | 12.5 (≈ 29.7 µM) | 6.25 (≈ 14.8 µM) | 25 (≈ 59.4 µM) | 6.25 (≈ 14.8 µM)
4 | O=[N+]([O-])c1ccn(CC#CI)c1 | 0.1 (≈ 0.362 µM) | 0.1 (≈ 0.362 µM) | 0.78 (≈ 2.83 µM) | 0.78 (≈ 2.83 µM) | 0.2 (≈ 0.725 µM)
5 | Fc1ccc(-c2nnn(CC#CI)n2)cc1 | 0.78 (≈ 2.38 µM) | 0.2 (≈ 0.61 µM) | 0.1 (≈ 0.305 µM) | 0.78 (≈ 2.38 µM) | 0.1 (≈ 0.305 µM)
6 | IC#CCn1ncnn1 | 0.39 (≈ 1.67 µM) | 0.39 (≈ 1.67 µM) | 0.78 (≈ 3.33 µM) | 1.56 (≈ 6.67 µM) | 0.78 (≈ 3.33 µM)
7 | COc1ccc(-c2nnnn2CC#CI)cc1 | 25 (≈ 73.5 µM) | 0.78 (≈ 2.29 µM) | 0.2 (≈ 0.588 µM) | 25 (≈ 73.5 µM) | 0.1 (≈ 0.294 µM)
8 | O=[N+]([O-])c1cn(CC#CI)cn1 | 0.1 (≈ 0.361 µM) | 0.78 (≈ 2.82 µM) | 0.78 (≈ 2.82 µM) | 6.25 (≈ 22.6 µM) | 0.2 (≈ 0.722 µM)
9 | CN(C)c1ccc(-c2nnn(CC#CI)n2)cc1 | 50 (≈ 142 µM) | 50 (≈ 142 µM) | 0.78 (≈ 2.21 µM) | 50 (≈ 142 µM) | 0.78 (≈ 2.21 µM)
10 | CC(C)Cc1nnnn1CC#CI | 6.25 (≈ 21.5 µM) | 3.13 (≈ 10.8 µM) | 1.56 (≈ 5.38 µM) | 12.5 (≈ 43.1 µM) | 1.56 (≈ 5.38 µM)
11 | IC#CCn1cncn1 | 0.78 (≈ 3.35 µM) | 0.39 (≈ 1.67 µM) | 0.78 (≈ 3.35 µM) | 3.13 (≈ 13.4 µM) | 0.78 (≈ 3.35 µM)
12 | CC(C)(C)c1nnn(CC#CI)n1 | 25 (≈ 86.2 µM) | 1.56 (≈ 5.38 µM) | 0.78 (≈ 2.69 µM) | 3.13 (≈ 10.8 µM) | 0.78 (≈ 2.69 µM)
13 | IC(I)=C(I)Cn1nnnc1C1CC1 | > 25 | 1.56 (≈ 2.96 µM) | 1.56 (≈ 2.96 µM) | 25 (≈ 47.4 µM) | 0.78 (≈ 1.48 µM)
14 | COC(=O)c1cccn1CC(I)=C(I)I | 3.13 (≈ 5.77 µM) | 3.13 (≈ 5.77 µM) | 0.39 (≈ 0.718 µM) | 1.56 (≈ 2.87 µM) | 0.78 (≈ 1.44 µM)
15 | CCCCCCCc1nnn(CC#CI)n1 | 6.25 (≈ 18.8 µM) | 0.78 (≈ 2.35 µM) | 0.1 (≈ 0.301 µM) | 12.5 (≈ 37.6 µM) | 0.1 (≈ 0.301 µM)
16 | CC(C)c1nnnn1CC#CI | 25 (≈ 90.6 µM) | 6.25 (≈ 22.6 µM) | 1.56 (≈ 5.65 µM) | 12.5 (≈ 45.3 µM) | 3.13 (≈ 11.3 µM)

Row | SMILES | MIC (Cryptococcus neoformans) [µg/mL] | MIC (Aspergillus fumigatus) [µg/mL] | MIC [1] [µg/mL] | MIC (Candida albicans) [µg/mL] | MIC (Trichophyton benhamiae) [µg/mL]
17 | Cc1nccn1CC(I)=C(I)I | 25 (≈ 50 µM) | 6.25 (≈ 12.5 µM) | 3.13 (≈ 6.26 µM) | 12.5 (≈ 25 µM) | 6.25 (≈ 12.5 µM)
18 | IC#CCn1nnc(Cc2ccccc2)n1 | 6.25 (≈ 19.3 µM) | 0.78 (≈ 2.41 µM) | 0.1 (≈ 0.309 µM) | 6.25 (≈ 19.3 µM) | 0.1 (≈ 0.309 µM)
19 | IC(I)=C(I)Cn1cncn1 | 6.25 (≈ 12.8 µM) | 0.2 (≈ 0.411 µM) | 0.39 (≈ 0.801 µM) | 1.56 (≈ 3.2 µM) | 0.78 (≈ 1.6 µM)
20 | O=[N+]([O-])c1ccc(-c2nnn(CC(I)=C(I)I)n2)cc1 | > 100 | > 100 | > 100 | > 100 | > 100
21 | COc1ccc(-c2nnnn2CC(I)=C(I)I)cc1 | 0.78 (≈ 1.31 µM) | 0.78 (≈ 1.31 µM) | 0.39 (≈ 0.657 µM) | 6.25 (≈ 10.5 µM) | 0.1 (≈ 0.168 µM)
22 | IC(I)=C(I)Cn1nccn1 | 1.56 (≈ 3.2 µM) | 0.39 (≈ 0.801 µM) | 0.39 (≈ 0.801 µM) | 0.78 (≈ 1.6 µM) | 0.2 (≈ 0.411 µM)
23 | O=[N+]([O-])c1c(Cl)cccc1-c1cn(CC(I)=C(I)I)cc1Cl | 12.5 (≈ 18.5 µM) | 12.5 (≈ 18.5 µM) | 6.25 (≈ 9.26 µM) | 12.5 (≈ 18.5 µM) | 3.13 (≈ 4.64 µM)
24 | IC#CCn1nnnc1Cc1ccccc1 | 12.5 (≈ 38.6 µM) | 1.56 (≈ 4.81 µM) | 0.39 (≈ 1.2 µM) | 12.5 (≈ 38.6 µM) | 0.78 (≈ 2.41 µM)
25 | IC#CCn1nnnc1C1CC1 | 12.5 (≈ 45.6 µM) | 3.13 (≈ 11.4 µM) | 3.13 (≈ 11.4 µM) | 12.5 (≈ 45.6 µM) | 1.56 (≈ 5.69 µM)
26 | COC(=O)c1cc([N+](=O)[O-])cn1CC(I)=C(I)I | 3.13 (≈ 5.32 µM) | 1.56 (≈ 2.65 µM) | 0.39 (≈ 0.663 µM) | 3.13 (≈ 5.32 µM) | 0.39 (≈ 0.663 µM)
27 | IC#CCn1cnnn1 | 0.78 (≈ 3.33 µM) | 1.56 (≈ 6.67 µM) | 1.56 (≈ 6.67 µM) | 3.13 (≈ 13.4 µM) | 1.56 (≈ 6.67 µM)
28 | Clc1ccccc1-c1nnn(CC#CI)n1 | 1.56 (≈ 4.53 µM) | 0.78 (≈ 2.26 µM) | 0.1 (≈ 0.29 µM) | 1.56 (≈ 4.53 µM) | 0.1 (≈ 0.29 µM)
29 | IC(I)=C(I)Cn1nnc(C2CC2)n1 | 3.13 (≈ 5.93 µM) | 0.39 (≈ 0.739 µM) | 0.2 (≈ 0.379 µM) | 3.13 (≈ 5.93 µM) | 0.2 (≈ 0.379 µM)
30 | CCOCCc1nnnn1CC(I)=C(I)I | 6.25 (≈ 11.2 µM) | 3.13 (≈ 5.59 µM) | 1.56 (≈ 2.79 µM) | 6.25 (≈ 11.2 µM) | 0.1 (≈ 0.179 µM)
31 | CCCCCc1nnnn1CC#CI | 3.13 (≈ 10.3 µM) | 0.39 (≈ 1.28 µM) | 0.1 (≈ 0.329 µM) | 3.13 (≈ 10.3 µM) | 0.2 (≈ 0.658 µM)
32 | IC(I)=C(I)Cn1ccnn1 | 6.25 (≈ 12.8 µM) | 0.78 (≈ 1.6 µM) | 0.78 (≈ 1.6 µM) | 3.13 (≈ 6.43 µM) | 0.39 (≈ 0.801 µM)
